Reference: patent US20170166598A1, “HETEROARYL COMPOUNDS FOR KINASE INHIBITION” (ARIAD PHARMACEUTICALS, INC., priority 2014, published 2017)
pIC50: −log10 of the molar value.

Key:
Type in all cases: cell-based
[1] = target: T1, Her2 exon 20 YVMA insertion (A775_G776ins YVMA) (Homo sapiens, UniProt P04626, INS775YVMA); assay: Ba/F3-Her2 Exon20 YVMA cell anti-proliferative assay (CellTiter 96 MTS, 72 h); details: Ba/F3-Her2 Exon20 YVMA cells
T1 construct: expressed in transfected cells; host or cells: Ba/F3 (murine pro-B) cells transduced with lentivirus from pLVX-IRES puro
T1 sequence (P04626 with tags, fused parts or gaps INS775YVMA): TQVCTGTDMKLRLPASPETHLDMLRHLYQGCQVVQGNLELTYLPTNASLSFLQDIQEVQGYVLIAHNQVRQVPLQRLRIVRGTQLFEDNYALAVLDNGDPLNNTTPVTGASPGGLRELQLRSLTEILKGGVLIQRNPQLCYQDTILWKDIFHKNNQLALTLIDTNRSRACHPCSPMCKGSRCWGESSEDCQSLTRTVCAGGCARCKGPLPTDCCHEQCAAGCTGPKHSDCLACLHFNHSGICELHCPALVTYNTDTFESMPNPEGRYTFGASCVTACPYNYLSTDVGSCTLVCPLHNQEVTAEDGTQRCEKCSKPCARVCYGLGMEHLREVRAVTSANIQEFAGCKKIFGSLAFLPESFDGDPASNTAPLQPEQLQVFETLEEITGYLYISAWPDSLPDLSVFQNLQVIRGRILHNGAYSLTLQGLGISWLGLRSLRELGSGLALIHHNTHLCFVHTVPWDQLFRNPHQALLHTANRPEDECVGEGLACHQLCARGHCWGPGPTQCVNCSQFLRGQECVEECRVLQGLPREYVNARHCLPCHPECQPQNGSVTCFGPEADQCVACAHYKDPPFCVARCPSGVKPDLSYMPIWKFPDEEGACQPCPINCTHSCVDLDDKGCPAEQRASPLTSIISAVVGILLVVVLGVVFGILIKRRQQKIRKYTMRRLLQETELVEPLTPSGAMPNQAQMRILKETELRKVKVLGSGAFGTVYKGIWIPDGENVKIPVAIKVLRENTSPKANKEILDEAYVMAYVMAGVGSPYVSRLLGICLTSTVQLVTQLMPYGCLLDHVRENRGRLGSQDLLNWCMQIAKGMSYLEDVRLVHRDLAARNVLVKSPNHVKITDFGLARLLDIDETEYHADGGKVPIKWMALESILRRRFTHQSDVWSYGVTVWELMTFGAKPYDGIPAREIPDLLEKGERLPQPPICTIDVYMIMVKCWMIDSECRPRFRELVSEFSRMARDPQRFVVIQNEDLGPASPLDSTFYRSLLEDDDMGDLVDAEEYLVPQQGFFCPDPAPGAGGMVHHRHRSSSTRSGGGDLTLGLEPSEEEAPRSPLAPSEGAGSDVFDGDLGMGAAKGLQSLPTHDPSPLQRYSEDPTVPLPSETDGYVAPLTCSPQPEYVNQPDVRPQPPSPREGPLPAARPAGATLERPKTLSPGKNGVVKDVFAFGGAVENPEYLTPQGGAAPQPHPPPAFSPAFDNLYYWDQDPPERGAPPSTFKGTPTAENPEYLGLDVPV
Excerpt: A compound's ability in selectively inhibiting Her2 exon 20 YVMA insertion mutations can be assessed using Ba/F3 cells, a murine pro-B cell line, which have been transduced with Her2 Exon20 YVMA insertions. An expression vector, pLVX-IRES puro (Clontech) coding for […] (A775_G776ins YVMA), was transfected into HEK293 cells by the Trans-Lentiviral ORF Packaging System (Thermo Scientific), to produce virus encoding EGFR exon 20 insertions. Ba/F3 (DSMZ) cells maintained in RPMI 1640 medium supplemented with 10% fetal bovine serum, 200 μM L-glutamine/200 μg/mL penicillin/200 μg/mL streptomycin (Life Technology) and 10 ng/mL IL-3 (R&D system), were infected by EGFR Exon20 virus and subsequently selected by puromycin (Life Technology) selection and IL-3 depletion. Ba/F3 cells expressing Her2 Exon20 YVMA insertions (named Ba/F3-Her2 Exon20 YVMA) can proliferate in the absence of IL-3. The anti-proliferative activity of compounds was determined as follows: BaF3-Her2 Exon20 YVMA cells seeded in 96 well plates (2500 cells/well) were treated with test compound (dissolved in DMSO) at a series of concentrations (4-fold dilution, top concentration: 10,000 nM). The plates were incubated for 72 h in a 37° C. incubator with 5% CO2, and the number of viable cells in each well were measured indirectly by CellTiter 96@ Aqueous One Solution Cell Proliferation Assay (Promega; this assay is a colorimetric method for determining the number of viable cells through measurement of their metabolic activity by detection of enzymatic conversion of tetrazolium salts into blue formazan derivatives). Reagent (20 μL) was added into each well, and the plates were returned to the incubator for 2 h. The absorbance in each well was then measured at 490 nm using an Envision plate reader (Perkin Elmer).

[2] = target: T2, human EGFR E746-A750 deletion and T790M Mutation (Homo sapiens, UniProt P00533, DEL746-750/T790M); assay: Ba/F3-EGFR-Del/T790M cell anti-proliferative assay (CellTiter 96 MTS, 72 h); details: Ba/F3-EGFR-Del/T790M cells
T2 construct: expressed in transfected cells; host or cells: Ba/F3 (murine pro-B) cells transduced with lentivirus from pLVX-IRES puro
T2 sequence (P00533 with tags, fused parts or gaps DEL746-750/T790M): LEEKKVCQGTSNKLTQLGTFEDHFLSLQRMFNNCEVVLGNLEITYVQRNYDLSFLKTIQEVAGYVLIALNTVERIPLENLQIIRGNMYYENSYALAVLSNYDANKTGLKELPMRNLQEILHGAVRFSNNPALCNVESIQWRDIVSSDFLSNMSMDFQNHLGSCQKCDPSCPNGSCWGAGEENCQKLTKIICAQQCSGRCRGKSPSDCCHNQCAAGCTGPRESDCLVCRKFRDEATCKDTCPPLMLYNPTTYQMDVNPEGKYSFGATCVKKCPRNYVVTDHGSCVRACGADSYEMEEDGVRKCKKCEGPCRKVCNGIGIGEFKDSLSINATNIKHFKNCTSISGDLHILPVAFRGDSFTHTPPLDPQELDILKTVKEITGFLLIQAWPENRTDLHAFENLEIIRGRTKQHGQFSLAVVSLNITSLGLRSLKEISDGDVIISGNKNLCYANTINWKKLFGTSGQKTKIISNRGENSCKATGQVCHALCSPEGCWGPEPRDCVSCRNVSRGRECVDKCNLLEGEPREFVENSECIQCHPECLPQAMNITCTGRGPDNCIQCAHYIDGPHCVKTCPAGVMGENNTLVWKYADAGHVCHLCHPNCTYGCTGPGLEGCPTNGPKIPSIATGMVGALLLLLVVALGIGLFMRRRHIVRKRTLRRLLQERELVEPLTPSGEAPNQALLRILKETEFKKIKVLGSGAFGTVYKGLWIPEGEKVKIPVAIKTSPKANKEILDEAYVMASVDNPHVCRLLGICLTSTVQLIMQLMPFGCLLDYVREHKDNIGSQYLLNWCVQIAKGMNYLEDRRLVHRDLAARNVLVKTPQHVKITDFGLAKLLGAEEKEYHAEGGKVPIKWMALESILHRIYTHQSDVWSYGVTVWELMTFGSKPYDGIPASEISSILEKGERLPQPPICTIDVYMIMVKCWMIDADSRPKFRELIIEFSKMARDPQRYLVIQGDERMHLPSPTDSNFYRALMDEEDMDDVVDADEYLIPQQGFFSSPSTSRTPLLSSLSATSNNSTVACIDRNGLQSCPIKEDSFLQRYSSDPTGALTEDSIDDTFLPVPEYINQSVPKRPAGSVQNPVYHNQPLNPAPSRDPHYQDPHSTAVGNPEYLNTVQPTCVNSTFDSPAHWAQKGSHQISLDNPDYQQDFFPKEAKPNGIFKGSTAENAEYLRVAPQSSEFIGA
Protocol: An expression vector, pLVX-IRES puro (Clontech) coding for human EGFR E746-A750 deletion and T790M Mutation, was transfected into HEK293 cells by the Trans-Lentiviral ORF Packaging System (Thermo Scientific), to produce virus encoding EGFR exon 19 deletion and T790M mutations. Ba/F3 (DSMZ) cells maintained in RPMI 1640 medium supplemented with 10% fetal bovine serum, 200 μM L-glutamine/200 μg/mL penicillin/200 μg/mL streptomycin (Life Technology) and 10 ng/mL IL-3 (R&D system), were infected by EGFR E746-A750 deletion and T790M Mutation virus and subsequently selected by puromycin (Life Technology) selection and IL-3 depletion. […] The anti-proliferative activity of compounds was determined as follows: BaF3-EGFR-Del/T790M cells seeded in 96 well plates (2500 cells/well) were treated with test compound (dissolved in DMSO) at a series of concentrations (4-fold dilution, top concentration: 10,000 nM). The plates were incubated for 72 h in a 37° C. incubator with 5% CO2, and the number of viable cells in each well were measured indirectly by CellTiter 96® Aqueous One Solution Cell Proliferation Assay (Promega; this assay is a colorimetric method for determining the number of viable cells through measurement of their metabolic activity by detection of enzymatic conversion of tetrazolium salts into blue formazan derivatives). Reagent (20 μL) was added into each well, and the plates were returned to the incubator for 2 h. The absorbance in each well was then measured at 490 nm using an Envision plate reader (Perkin Elmer).

[3] = target: T3, human EGFR exon 20 insertion NPG (H773_V774insNPG) (Homo sapiens, UniProt P00533, INS772GNP); assay: Ba/F3-EGFR-Exon20-NPG cell anti-proliferative assay (CellTiter 96 MTS, 72 h); details: Ba/F3-EGFR-Exon20-NPG cells
T3 construct: expressed in transfected cells; host or cells: Ba/F3 (murine pro-B) cells transduced with lentivirus from pLVX-IRES puro
T3 sequence (P00533 with tags, fused parts or gaps INS772GNP): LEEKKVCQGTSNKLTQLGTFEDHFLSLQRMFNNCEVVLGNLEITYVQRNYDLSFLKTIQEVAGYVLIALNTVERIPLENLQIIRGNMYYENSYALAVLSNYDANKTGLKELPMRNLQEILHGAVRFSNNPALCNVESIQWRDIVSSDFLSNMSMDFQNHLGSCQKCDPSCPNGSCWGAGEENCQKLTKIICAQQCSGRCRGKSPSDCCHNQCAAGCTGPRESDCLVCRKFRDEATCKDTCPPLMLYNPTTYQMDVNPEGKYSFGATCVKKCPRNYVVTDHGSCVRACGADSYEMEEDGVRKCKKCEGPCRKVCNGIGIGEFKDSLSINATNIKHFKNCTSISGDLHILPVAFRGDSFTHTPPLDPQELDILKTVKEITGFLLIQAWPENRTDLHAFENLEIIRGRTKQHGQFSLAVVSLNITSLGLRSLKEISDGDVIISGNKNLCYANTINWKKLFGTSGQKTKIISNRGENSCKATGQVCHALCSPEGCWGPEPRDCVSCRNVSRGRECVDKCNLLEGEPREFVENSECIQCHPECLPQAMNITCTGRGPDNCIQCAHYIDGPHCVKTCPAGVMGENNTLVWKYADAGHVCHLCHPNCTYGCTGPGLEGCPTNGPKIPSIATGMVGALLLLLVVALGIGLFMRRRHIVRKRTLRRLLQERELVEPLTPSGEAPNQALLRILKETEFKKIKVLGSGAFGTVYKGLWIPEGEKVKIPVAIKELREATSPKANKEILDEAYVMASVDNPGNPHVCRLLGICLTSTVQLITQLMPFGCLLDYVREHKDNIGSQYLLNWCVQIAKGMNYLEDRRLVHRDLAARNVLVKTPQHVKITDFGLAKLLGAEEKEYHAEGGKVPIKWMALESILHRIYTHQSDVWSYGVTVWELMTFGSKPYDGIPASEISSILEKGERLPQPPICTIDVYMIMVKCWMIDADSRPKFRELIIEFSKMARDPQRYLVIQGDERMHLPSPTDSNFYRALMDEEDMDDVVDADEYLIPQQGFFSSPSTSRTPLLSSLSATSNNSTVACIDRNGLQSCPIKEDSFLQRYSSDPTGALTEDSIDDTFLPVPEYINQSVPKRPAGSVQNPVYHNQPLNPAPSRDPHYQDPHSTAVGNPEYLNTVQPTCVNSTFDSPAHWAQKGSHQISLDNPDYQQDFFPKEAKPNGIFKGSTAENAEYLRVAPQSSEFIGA
Protocol: An expression vector, pLVX-IRES puro (Clontech) coding for human EGFR exon 20 insertions NPG (H773_V774insNPG) or ASV (V769_D770insASV), was transfected into HEK293 cells by the Trans-Lentiviral ORF Packaging System (Thermo Scientific), to produce virus encoding EGFR exon 20 insertions. Ba/F3 (DSMZ) cells maintained in RPMI 1640 medium supplemented with 10% fetal bovine serum, 200 μM L-glutamine/l 200 μg/mL penicillin/200 μg/mL streptomycin (Life Technology) and 10 ng/mL IL-3 (R&D system), were infected by EGFR Exon20 virus and subsequently selected by puromycin (Life Technology) selection and IL-3 depletion. […] The anti-proliferative activity of compounds were determined as follows: BaF3-EGFR-Exon20 cells (NPG or ASV) seeded in 96 well plates (2500 cells/well) were treated with test compound (dissolved in DMSO) at a series of concentrations (4-fold dilution, top concentration: 10,000 nM). The plates were incubated for 72 h in a 37° C. incubator with 5% CO2, and the number of viable cells in each well were measured indirectly by CellTiter 96® Aqueous One Solution Cell Proliferation Assay (Promega) This assay is a colorimetric method for determining the number of viable cells through measurement of their metabolic activity by detection of enzymatic conversion of tetrazolium salts into blue formazan derivatives. Reagent (20 μL) was added into each well, and the plates were returned to the incubator for 2 h. The absorbance in each well was then measured at 490 nm using an Envision plate reader (Perkin Elmer).

Compound | pIC50 [1] | pIC50 [3] | EGFR exon 19 deletion and exon 20 T790M mutation IC50 [2]
C=CC(=O)Nc1cc(Nc2ncc(Cl)c(-c3cn4c5c(cccc35)CCC4)n2)c(OC)cc1OCCN1CCN(C)CC1 [Example 21, N-(5-((5-chloro-4-(5,6-dihydro-4H-pyrrolo[3,2,1-ij]quinolin-1-yl)pyrimidin-2-yl)amino)-4-methoxy-2-(2-(4-methylpiperazin-1-yl)ethoxy)phenyl)acrylamide] | < 6.00 | 6.30 to 7.00 | A (IC50 value for the indicated mutant below about 100 nM)
C=CC(=O)Nc1cc(Nc2ncc(Cl)c(-c3cn4c5c(cccc35)CCC4)n2)c(OC)cc1N(C)CCN1CCCC1 [Example 24, N-(5-((5-chloro-4-(5,6-dihydro-4H-pyrrolo[3,2,1-ij]quinolin-1-yl)pyrimidin-2-yl)amino)-4-methoxy-2-(methyl(2-(pyrrolidin-1-yl)ethyl)amino)phenyl)acrylamide] | 6.30 to 7.00 | > 7.00 | A (IC50 value for the indicated mutant below about 100 nM)
C=CC(=O)Nc1cc(Nc2ncc(CC)c(-c3cn4c5c(cccc35)CCC4)n2)c(OC)cc1N1CCN(C(C)=O)CC1 [Example 3, N-(2-(4-acetylpiperazin-1-yl)-5-((4-(5,6-dihydro-4H-pyrrolo[3,2,1-ij]quinolin-1-yl)-5-ethylpyrimidin-2-yl)amino)-4-methoxyphenyl)acrylamide] | < 6.00 | < 6.00 | B (IC50 value for the indicated mutant between about 100 to about 500 nM)
C=CC(=O)Nc1cc(Nc2ncc(Cl)c(-c3cn4c5c(cccc35)OCC4)n2)c(C)cc1OCCN1CCCC1 [Example 78, N-(5-((5-chloro-4-(2,3-dihydro-[1,4]oxazino[2,3,4-hi]indol-6-yl)pyrimidin-2-yl)amino)-4-methyl-2-(2-(pyrrolidin-1-yl)ethoxy)phenyl)acrylamide] | 6.30 to 7.00 | > 7.00 | A (IC50 value for the indicated mutant below about 100 nM)
C=CC(=O)Nc1cc(Nc2ncc(Cl)c(-c3cn4c5c(cccc35)CCC4)n2)c(OC)cc1N(C)CCN1CCN(C)CC1 [Example 25, N-(5-((5-chloro-4-(5,6-dihydro-4H-pyrrolo[3,2,1-ij]quinolin-1-yl)pyrimidin-2-yl)amino)-4-methoxy-2-(methyl(2-(4-methylpiperazin-1-yl)ethyl)amino)phenyl)acrylamide] | < 6.00 | 6.30 to 7.00 | A (IC50 value for the indicated mutant below about 100 nM)
C=CC(=O)Nc1cc(Nc2ncc(Cl)c(-c3cn4c5c(cccc35)CCC4)n2)c(OC)cc1OCCN1CCCC1 [Example 20] | 6.00 to 6.30 | 6.30 to 7.00 | A (IC50 value for the indicated mutant below about 100 nM)
C=CC(=O)Nc1cc(Nc2ncc(Cl)c(-c3cn4c5c(cccc35)CCC4)n2)c(OC)cc1OCCN1CCOCC1 [Example 22, N-(5-((5-chloro-4-(5,6-dihydro-4H-pyrrolo[3,2,1-ij]quinolin-1-yl)pyrimidin-2-yl)amino)-4-methoxy-2-(2-morpholinoethoxy)phenyl)acrylamide] | < 6.00 | 6.30 to 7.00 | A (IC50 value for the indicated mutant below about 100 nM)

Continued, in another order:

pIC50 [1] | pIC50 [3] | Compound | EGFR exon 19 deletion and exon 20 T790M mutation IC50 [2]
6.30 to 7.00 | – | C=CC(=O)Nc1cc(Nc2nccc(-c3cn4c5c(cccc35)OCC4)n2)c(OC)cc1N(C)CCN(C)C [Example 77, N-(5-((4-(2,3-dihydro-[1,4]oxazino[2,3,4-hi]indol-6-yl)pyrimidin-2-yl)amino)-2-((2-(dimethylamino)ethyl)(methyl)amino)-4-methoxyphenyl)acrylamide] | –
6.00 to 6.30 | > 7.00 | C=CC(=O)Nc1cc(Nc2ncc(C3CC3)c(-c3cn4c5c(cccc35)CCC4)n2)c(OC)cc1N(C)CCN(C)C [Example 28, N-(5-((5-cyclopropyl-4-(5,6-dihydro-4H-pyrrolo[3,2,1-ij]quinolin-1-yl)pyrimidin-2-yl)amino)-2-((2-(dimethylamino)ethyl)(methyl)amino)-4-methoxyphenyl)acrylamide] | A (IC50 value for the indicated mutant below about 100 nM)
> 7.00 | > 7.00 | C=CC(=O)Nc1cc(Nc2ncc(C(=C)C)c(-c3cn4c5c(cccc35)CCC4)n2)c(OC)cc1N(C)CCN(C)C [Example 29, N-(5-((4-(5,6-dihydro-4H-pyrrolo[3,2,1-ij]quinolin-1-yl)-5-(prop-1-en-2-yl)pyrimidin-2-yl)amino)-2-((2-(dimethylamino)ethyl)(methyl)amino)-4-methoxyphenyl)acrylamide] | A (IC50 value for the indicated mutant below about 100 nM)
6.00 to 6.30 | 6.30 to 7.00 | C=CC(=O)Nc1cc(Nc2ncc(C(C)C)c(-c3cn4c5c(cccc35)CCC4)n2)c(OC)cc1N(C)CCN(C)C [Example 30, N-(5-((4-(5,6-dihydro-4H-pyrrolo[3,2,1-ij]quinolin-1-yl)-5-isopropylpyrimidin-2-yl)amino)-2-((2-(dimethylamino)ethyl)(methyl)amino)-4-methoxyphenyl)acrylamide] | A (IC50 value for the indicated mutant below about 100 nM)
6.30 to 7.00 | > 7.00 | C=CC(=O)Nc1cc(Nc2ncc(Cl)c(-c3cn4c5c(cccc35)CCC4)n2)c(C)cc1N(C)CCN(C)C [Example 13, N-(5-((5-chloro-4-(5,6-dihydro-4H-pyrrolo[3,2,1-ij]quinolin-1-yl)pyrimidin-2-yl)amino)-2-((2-(dimethylamino)ethyl)(methyl)amino)-4-methylphenyl)acrylamide] | A (IC50 value for the indicated mutant below about 100 nM)
6.30 to 7.00 | > 7.00 | C=CC(=O)Nc1cc(Nc2ncc(Cl)c(-c3cn4c5c(cccc35)OCC4)n2)c(C)cc1N(C)CCN1CCCC1 [Example 79, N-(5-((5-chloro-4-(2,3-dihydro-[1,4]oxazino[2,3,4-hi]indol-6-yl)pyrimidin-2-yl)amino)-4-methyl-2-(methyl(2-(pyrrolidin-1-yl)ethyl)amino)phenyl)acrylamide] | A (IC50 value for the indicated mutant below about 100 nM)
